Bounds are passed on as bounds.

The target in this assay is T1, human ENT1 (Homo sapiens, UniProt Q99808).
T1 sequence (Q99808 1-456): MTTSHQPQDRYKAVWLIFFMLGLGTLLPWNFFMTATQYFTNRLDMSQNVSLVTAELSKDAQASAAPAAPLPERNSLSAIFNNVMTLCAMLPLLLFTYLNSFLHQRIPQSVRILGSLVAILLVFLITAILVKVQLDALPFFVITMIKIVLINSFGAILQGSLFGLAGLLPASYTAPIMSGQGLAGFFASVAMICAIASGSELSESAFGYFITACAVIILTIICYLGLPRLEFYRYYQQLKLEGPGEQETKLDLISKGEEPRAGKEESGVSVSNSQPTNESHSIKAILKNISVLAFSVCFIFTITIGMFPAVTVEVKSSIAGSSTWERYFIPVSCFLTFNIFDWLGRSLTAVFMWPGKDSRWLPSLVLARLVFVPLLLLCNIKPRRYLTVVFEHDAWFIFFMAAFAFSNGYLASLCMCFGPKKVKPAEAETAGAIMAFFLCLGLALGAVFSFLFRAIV
Put plainly: ENT1 binding assay (competition with Sahenta-DY647 on JAR cells). More on the design: JAR cells expressing ENT1 were bought from ATCC; host or cells: JAR cells. To be noted: binned IC50. Here is the method: Purpose. […] By measuring the fluorescence at the end of the assay we could assess the binding potency of the compounds of the present invention.
JAR cells were resuspended in the described buffer. Compounds of the present invention and Sahenta-DY647 were diluted 200× in the described buffer.
The total volume of the reaction was 100 μL (50 μL of cells, 25 μL of the compounds of the present invention and 25 μL of Sahenta-DY647) in a 96 well plate, U-bottom (Greiner®, #650-180). The plates were washed 2× by centrifugation (4 min, 400 rcf at 4° C.) in the same buffer.
`COCCN(CCOC)c1nc(N2CCC(OC)CC2)c2nc(N(CCOC)CCOC)nc(NCc3cscn3)c2n1` [Compound 66, N2,N2,N6,N6-tetrakis(2-methoxyethyl)-8-(4-methoxypiperidin-1-yl)-N4-(thiazol-4-ylmethyl)pyrimido[5,4-d]pyrimidine-2,4,6-triamine] showed an IC50 of 500 to 1000 nM.

For `COCCN(CCOC)c1nc(N2CCC(OC)CC2)c2nc(N(CCOC)CCOC)nc(N(C)C)c2n1` [Compound 67, N2,N2,N6,N6-tetrakis(2-methoxyethyl)-8-(4-methoxypiperidin-1-yl)-N4,N4-dimethylpyrimido[5,4-d]pyrimidine-2,4,6-triamine], the half-maximal inhibitory concentration (IC50) fell in the range of 500 to 1000 nM. `COCCN(CCOC)c1nc(N2CCC(OC)CC2)c2nc(N(CCOC)CCOC)nc(N3CCOCC3)c2n1` [Compound 69, N2,N2,N6,N6-tetrakis(2-methoxyethyl)-4-(4-methoxypiperidin-1-yl)-8-morpholinopyrimido[5,4-d]pyrimidine-2,6-diamine] returned a 50% inhibitory concentration (IC50) of 500 to 1000 nM. With `COCCN(CCOC)c1nc(N2CCNC(=O)C2)c2nc(N(CCOC)CCOC)nc(N3CCC(OC)CC3)c2n1` [Compound 70, 4-(2,6-bis(bis(2-methoxyethyl)amino)-8-(4-methoxypiperidin-1-yl)pyrimido[5,4-d]pyrimidin-4-yl)piperazin-2-one] the figure was 500 to 1000 nM; with `COCCN(CCOC)c1nc(N2CCC(OC)CC2)c2nc(N(CCOC)CCOC)nc(N3CCC(O)CC3)c2n1` [Compound 71, 1-(2,6-bis(bis(2-methoxyethyl)amino)-8-(4-methoxypiperidin-1-yl)pyrimido[5,4-d]pyrimidin-4-yl)piperidin-4-ol], 100 to 500 nM; with `COCCN(CCOC)c1nc(N2CCC(OC)CC2)c2nc(N(CCOC)CCOC)nc(N(C)Cc3ccccn3)c2n1` [Compound 73, N2,N2,N6,N6-tetrakis(2-methoxyethyl)-8-(4-methoxypiperidin-1-yl)-N4-methyl-N4-(pyridin-2-ylmethyl)pyrimido[5,4-d]pyrimidine-2,4,6-triamine], 100 to 500 nM.

For `COCCN(CCOC)c1nc(N2CCN(C(C)=O)CC2)c2nc(N(CCOC)CCOC)nc(N3CCC(OC)CC3)c2n1` [Compound 74, 1-(4-(2,6-bis(bis(2-methoxyethyl)amino)-8-(4-methoxypiperidin-1-yl)pyrimido[5,4-d]pyrimidin-4-yl)piperazin-1-yl)ethanone], the IC50 lay in the range of 100 to 500 nM.

The molecule `COCCN(CCOC)c1nc(N2CCC(C(N)=O)CC2)c2nc(N(CCOC)CCOC)nc(N3CCC(OC)CC3)c2n1` [Compound 75, 1-(2,6-bis(bis(2-methoxyethyl)amino)-8-(4-methoxypiperidin-1-yl)pyrimido[5,4-d]pyrimidin-4-yl)piperidine-4-carboxamide] had a half-maximal inhibitory concentration (IC50) of 100 to 500 nM. With `COCCN(CCOC)c1nc(N2CCC(OC)CC2)c2nc(N(CCOC)CCOC)nc(N3CCC(COC)CC3)c2n1` [Compound 76, N2,N2,N6,N6-tetrakis(2-methoxyethyl)-4-(4-(methoxymethyl)piperidin-1-yl)-8-(4-methoxypiperidin-1-yl)pyrimido[5,4-d]pyrimidine-2,6-diamine], the 50% inhibitory concentration (IC50) was in the range of 500 to 1000 nM. With `COCCN(CCOC)c1nc(N2CCS(=O)(=O)CC2)c2nc(N(CCOC)CCOC)nc(N3CCC(OC)CC3)c2n1` [Compound 77, 4-(2,6-bis(bis(2-methoxyethyl)amino)-8-(4-methoxypiperidin-1-yl)pyrimido[5,4-d]pyrimidin-4-yl)thiomorpholine 1,1-dioxide] the figure was below 100 nM; with `COCCN(CCOC)c1nc(N2CCC(S(C)(=O)=O)CC2)c2nc(N(CCOC)CCOC)nc(N3CCC(OC)CC3)c2n1` [Compound 78, N2,N2,N6,N6-tetrakis(2-methoxyethyl)-4-(4-methoxypiperidin-1-yl)-8-(4-(methylsulfonyl)piperidin-1-yl)pyrimido[5,4-d]pyrimidine-2,6-diamine], 500 to 1000 nM; with `COCCN(CCOC)c1nc(N2CCC(OC)CC2)c2nc(N(CCOC)CCOC)nc(N3CCCOCC3)c2n1` [Compound 79, N2,N2,N6,N6-tetrakis(2-methoxyethyl)-4-(4-methoxypiperidin-1-yl)-8-(1,4-oxazepan-4-yl)pyrimido[5,4-d]pyrimidine-2,6-diamine], below 100 nM.

Regarding `COCCN(CCOC)c1nc(N2CCC(OC)C2)c2nc(N(CCOC)CCOC)nc(N3CCC(OC)CC3)c2n1` (stereo not drawn) [Compound 80, N2,N2,N6,N6-tetrakis(2-methoxyethyl)-4-(4-methoxypiperidin-1-yl)-8-(3-methoxypyrrolidin-1-yl)pyrimido[5,4-d]pyrimidine-2,6-diamine], the half-inhibitory concentration (IC50) is 100 to 500 nM. The same measure for `COCCN(CCOC)c1nc(N2CCC(OC)CC2)c2nc(N(CCOC)CCOC)nc(N(C)Cc3ccncc3)c2n1` [Compound 82, N2,N2,N6,N6-tetrakis(2-methoxyethyl)-8-(4-methoxypiperidin-1-yl)-N4-methyl-N4-(pyridin-4-ylmethyl)pyrimido[5,4-d]pyrimidine-2,4,6-triamine]: 100 to 500 nM; for `COCCN(CCOC)c1nc(N2CCC(OC)CC2)c2nc(N(CCOC)CCOC)nc(N(C)CCc3ccccn3)c2n1` [Compound 83, N2,N2,N6,N6-tetrakis(2-methoxyethyl)-8-(4-methoxypiperidin-1-yl)-N4-methyl-N4-(2-(pyridin-2-yl)ethyl)pyrimido[5,4-d]pyrimidine-2,4,6-triamine]: 500 to 1000 nM.

Turning to `COCCN(CCOC)c1nc(N2CCC(OC)CC2)c2nc(N(CCOC)CCOC)nc(NCc3cnccn3)c2n1` [Compound 84, N2,N2,N6,N6-tetrakis(2-methoxyethyl)-8-(4-methoxypiperidin-1-yl)-N4-(pyrazin-2-ylmethyl)pyrimido[5,4-d]pyrimidine-2,4,6-triamine], the IC50 lay in the range of 500 to 1000 nM.

Take `CCN(CC)c1nc(N(CCOC)CCOC)nc2c(N3CCC(OC)CC3)nc(N(CCOC)CCOC)nc12` [Compound 85, N4,N4-diethyl-N2,N2,N6,N6-tetrakis(2-methoxyethyl)-8-(4-methoxypiperidin-1-yl)pyrimido[5,4-d]pyrimidine-2,4,6-triamine]: the IC50 is below 100 nM.

Regarding `COCCN(CCOC)c1nc(N2CC(OC)C2)c2nc(N(CCOC)CCOC)nc(N3CCC(OC)CC3)c2n1` [Compound 86, 4-(3-methoxyazetidin-1-yl)-N2,N2,N6,N6-tetrakis(2-methoxyethyl)-8-(4-methoxypiperidin-1-yl)pyrimido[5,4-d]pyrimidine-2,6-diamine], the half-inhibitory concentration (IC50) fell in the range of 100 to 500 nM.

As for `COCCN(CCOC)c1nc(N2CCOC(C)C2)c2nc(N(CCOC)CCOC)nc(N3CCC(OC)CC3)c2n1` (stereo not drawn) [Compound 87, N2,N2,N6,N6-tetrakis(2-methoxyethyl)-4-(4-methoxypiperidin-1-yl)-8-(2-methylmorpholino)pyrimido[5,4-d]pyrimidine-2,6-diamine], the IC50 is 100 to 500 nM. With `COCCN(CCOC)c1nc(N2CCC(OC)CC2)c2nc(N(CCOC)CCOC)nc(N3CCC(NC(C)=O)CC3)c2n1` [Compound 88, N-(1-(2,6-bis(bis(2-methoxyethyl)amino)-8-(4-methoxypiperidin-1-yl)pyrimido[5,4-d]pyrimidin-4-yl)piperidin-4-yl)acetamide] the figure was 500 to 1000 nM. The same measure for `COCCN(CCOC)c1nc(N2CCC(OC)CC2)c2nc(N(CCOC)CCOC)nc(N3CCCC3)c2n1` [Compound 89, N2,N2,N6,N6-tetrakis(2-methoxyethyl)-4-(4-methoxypiperidin-1-yl)-8-(pyrrolidin-1-yl)pyrimido[5,4-d]pyrimidine-2,6-diamine]: 100 to 500 nM.

The record behind these values is US20230146675A1, “PYRIMIDO[5,4-d]PYRIMIDINE DERIVATIVES AS ENT INHIBITORS FOR THE TREATMENT OF CANCERS, AND COMBINATION THEREOF WITH ADENOSINE RECEPTOR ANTAGONISTS” (ITEOS BELGIUM SA, priority 2020, published 2023).
